Experimental data from EP2276347B1, “TOLTRAZURIL WITH IMPROVED DISSOLUTION PROPERTIES” (KRKA, tovarna zdravil, d.d., Novo mesto, priority 2008, dated 2009).

Assay: Specific surface area by nitrogen adsorption gas sorption (BET method)
Assay type: physicochemical
Conditions: toltrazuril particles, outgased in vacuum at room temperature
Description: Specific surface area was measured by gas sorption system based on nitrogen adsorption, using Brunauer, Emmett and Teller (BET) method. Corresponding amount of sample was outgased in a vacuum at room temperature. After degasification the tube was weighed with sample and the analysis was proceeded.

Row | Specific surface area | SMILES
1 | 14.1 m^2/g | Cc1cc(-n2c(=O)[nH]c(=O)n(C)c2=O)ccc1Oc1ccc(SC(F)(F)F)cc1 [micronized toltrazuril, toltrazuril]
2 | 13.8 m^2/g | Cc1cc(-n2c(=O)[nH]c(=O)n(C)c2=O)ccc1Oc1ccc(SC(F)(F)F)cc1 [Example 1, toltrazuril]
3 | 15.2 m^2/g | Cc1cc(-n2c(=O)[nH]c(=O)n(C)c2=O)ccc1Oc1ccc(SC(F)(F)F)cc1 [Example 4, toltrazuril]
4 | 18.8 m^2/g | Cc1cc(-n2c(=O)[nH]c(=O)n(C)c2=O)ccc1Oc1ccc(SC(F)(F)F)cc1 [Example 6, toltrazuril]
5 | 15 m^2/g | Cc1cc(-n2c(=O)[nH]c(=O)n(C)c2=O)ccc1Oc1ccc(SC(F)(F)F)cc1 [Example 2, toltrazuril]
6 | 19.5 m^2/g | Cc1cc(-n2c(=O)[nH]c(=O)n(C)c2=O)ccc1Oc1ccc(SC(F)(F)F)cc1 [Example 5, toltrazuril]
7 | 13.8 m^2/g | Cc1cc(-n2c(=O)[nH]c(=O)n(C)c2=O)ccc1Oc1ccc(SC(F)(F)F)cc1 [Example 3, toltrazuril]
